# In US8951963B2, “Active cores of peptide triazole HIV-1 entry inhibitors” (priority 2009, dated 2015):
# Entries after “also recorded” stand apart in the source; their conditions may differ. Where two headings read alike, the source gives them in different places. *1 amine or outer side, *2 acyl side, *3 side chain or, on linkers, in order; H or OH if unused. Where a SMILES comes first, the peptide text is derived from it. [ ]: non-standard residue; d: D form. X1 = O=C([C@@H]1C[C@H](n2cc([C]34[CH]5[CH]6[CH]7[CH]3[Fe]6754389%10[CH]4[CH]3[CH]8[CH]9[CH]4%10)nn2)CN1[*:1])[*:2]; Cit = NC(=O)NCCC[C@H](N)C(=O)O
# Legend:
# [1] = target: T1, HIV-1 YU2 gp120 (Human immunodeficiency virus type 1 group M subtype B, UniProt P35961); format: binding; settings: for dissociation rate constant (koff): Table 11, dissociation rate
# T1 construct: made in house; host or cells: Drosophila S2 cells
# Description: Surface plasmon resonance (SPR) interaction analyses were performed on a Biacore® 3000 optical biosensor (GE). All experiments were carried out at 25° C. using standard PBS, pH 7.4, with 0.005% Surfactant P20.
# Regeneration of the surface was achieved by a one 5-second pulse of 10 mM glycine, pH 1.5.
# SPR data analyses were performed using BIAEvaluation 4.0 software (GE). […] Experimental data were fitted to a simple 1:1 binding model with a parameter included for mass transport. […] The inhibition curve was converted into a calibration curve by the use of a fitting function. The fitting was done using the 4-parameter equation in BIAevaluation software: […]
# [2] = tested on: Pseudotyped HIV-1BaL; format: cell-based; settings: Table 12; HOS.CD4.CCR5 cells, 48 hours; NA = not active; read-out: IC50 (antiviral)
# [3] = tested on: HIV-1 strain BaL; test: Combination of HNG-156 and cyanovirin-N, HIV-1 BaL infection of P4-CCR5 cells; format: cell-based
# [4] = tested on: P4-CCR5 cells; settings: at concentrations corresponding to IC50 values; Gopi et al., 2008; cited from earlier work
# [5] = tested on: HIV-1 strain BaL; settings: P4-CCR5 cells; Gopi et al., 2008; read-out: IC50, inhibition of infection by HIV-1 BaL; cited from earlier work
# [6] = tested on: P4-CCR5 cells; test: In vitro cytotoxicity, MTT assay; format: cell-based; settings: concentrations as high as 0.1 mg/ml
# Description: (§1) P4-CCR5 cells were seeded at a density of 4×10^4 cells/well in a 96 well plate approximately 18 hours prior to experiment. […] The cells were subsequently washed and assessed for viability using a 3-(4,5-dimethylthiazol-2-yl)-2,5-diphenyltetrazolium bromide (MTT) assay of viability (previously described in Krebs et al. (1999). Concentrations were tested in triplicate in two independent assays.
# [7] = In vitro cytotoxicity, MTT assay; format: cell-based; settings: human; P4-CCR5 cells, 2 hours, MTT
# Description: as §1
# [8] = tested on: HIV-1 strain BaL; test: Inhibition of HIV-1 infection, whole virus assay in P4-CCR5 cells; format: cell-based; settings: result of one trial
# [9] = tested on: viruses pseudotyped with the VSV-G envelope; format: cell-based
# [10] = tested on: mAb 17b; test: SPR control: direct binding of peptide to mAb 17b surface; settings: SPR control experiment
# [11] = target: T2, gp120 (Human immunodeficiency virus type 1 group M subtype B, UniProt P35961); format: binding, HIV-1; settings: ITC, 25° C., PBS pH 7.4
# T2 construct: made in house; host or cells: Drosophila S2 cells
# Description: FIGS. 14A-14D are a series of graphs of calorimetric titration data of gp120 with various peptides. […] Data was obtained as 25° C. in PBS, pH 7.4. Experiments in FIGS. 14A and 14B were carried out using a VP-ITC, where 2 μM gp120 in the calorimetric cell (˜1.4 mL) was titrated with 10 μL aliquots of peptide at concentration of 30 μM.
# Isothermal titration calorimetric experiments were performed using high-precision calorimetric systems of model VP-ITC or ITC20 from MicroCal Inc. The titrations were performed by stepwise addition of peptide to gp120 contained in the calorimetric cell at a constant temperature of 25° C. […] For the experiments carried out in the VP-ITC the concentration of gp120 was about 2 μM and the syringe contained the peptide at a concentration about 30 μM. For the experiment carried out using ITC20 gp120 was prepared at about 4 μM and the peptide at 50-100 μM. The solutions contained within the calorimetric cells and injector syringes were prepared in PBS, pH 7.4 and thoroughly degassed to avoid bubble formation in the calorimetric cell. The heat evolved upon each injection of the peptide solution was obtained from the integral of the calorimetric signal. The heat associated with binding of a ligand to the protein in the cell was obtained by subtracting the heat of dilution from the heat of reaction.
# [12] = target: T3, sCD4 (Homo sapiens, UniProt P01730); test: SPR control: direct binding of peptide to sCD4 surface; settings: SPR control experiment
# T3 construct: soluble four domain CD4 (sCD4); made in house; host or cells: CHO cells
# [13] = target: T4, HIV-1YU-2 gp120 binding to mAb 17b (Human immunodeficiency virus type 1 group M subtype B, UniProt P35961); settings: Table 12; 100 nM gp120; NA = not active
# T4 construct: made in house; host or cells: Drosophila S2 cells (gp120)
# Description: (§2) Where Rhigh is the response value at high inhibitor concentrations and Rlow is response at low inhibitor concentrations. Cone is the concentration of inhibitor, and A1 and A2 are fitting parameters. At IC50 the following is true:
# (§3) Under this condition, A1=Conc and is therefore taken as the desired so parameter.
# [14] = target: T5, HIV-1YU-2 gp120 binding to sCD4 (Human immunodeficiency virus type 1 group M subtype B, UniProt P35961); settings: Table 12; 100 nM gp120; NA = not active
# T5 construct: made in house; host or cells: Drosophila S2 cells (gp120); CHO cells (sCD4)
# Description: as §2, §3
# [15] = target: T1, HIV-1 YU2 gp120; test: biochemical; format: binding; settings: Kd (affinity) for HIV-1 YU2 gp120 as measured by SPR
# Description: All surface plasmon resonance experiments (SPR) were performed on a BIA3000 optical biosensor (Biocore, Inc., Uppsala, Sweden). […] For direct binding experiments, YU2 gp120 was immobilized on the surface (˜4000 RU); peptide analytes in PBS buffer were passed over the surface at a flow rate of 50 μL/min, with 5 minute association phase and 5 minute dissociation phase. […] The indicated analytes were passed over the surfaces at a flow rate of 50 μL/minute, with 2.5 minute association phase and 2.5 minute dissociation phase.
# Data analysis was performed using BIAEvaluation® 4.0 software (Biacore Inc., NJ). The responses of a buffer injection and responses from the control surface to which the mAb 2B6R was immobilized, were subtracted to account for nonspecific binding. Experimental data were fitted to a simple 1:1 Langmuir binding model with a parameter included for mass transport. The average kinetic parameters (association [ka] and dissociation [kd] rates) generated from a minimum of four datasets were used to define equilibrium association (KA) and dissociation constants (KD).
molecule,measurement,setting,value
CC[C@H](C)[C@H](NC(=O)[C@@H](N)CCC(=O)O)C(=O)N[C@@H](CC(N)=O)C(=O)N[C@@H](CC(N)=O)C(=O)N[C@H](C(=O)N1C[C@@H](n2cc([C]34[CH]5[CH]6[CH]7[CH]3[Fe]6754389%10[CH]4[CH]3[CH]8[CH]9[CH]4%10)nn2)C[C@H]1C(=O)N[C@@H](Cc1c[nH]c2ccccc12)C(=O)N[C@@H](CO)C(N)=O)[C@@H](C)CC (stereo partly shown) [UM13] (H-EINNI[X1]WS-NH2; N-terminus and C-terminus assumed),dissociation rate constant (koff),[1],3.1E−03 ± 2 1/S
same,IC50,[2],1.2 ± 0.3 µM
RINNIPWSEAMM [HNG-113],synergy with CV-N,[3],does not synergize
same,impact on cell viability,[4],no or minimal impact
same,IC50,[5],0.156 µM
"12-mer peptide RINNIPWSEAMM (SEQ ID NO. 16) from phage-display library [Conjugate 12p1, reference compound]",IC50,[5],48 µM
CC[C@H](C)[C@H](NC(=O)[C@@H](N)CCCNC(=N)N)C(=O)N[C@@H](CC(N)=O)C(=O)N[C@@H](CC(N)=O)C(=O)N[C@H](C(=O)N1C[C@@H](n2cc([C]34[CH]5[CH]6[CH]7[CH]3[Fe]6754389%10[CH]4[CH]3[CH]8[CH]9[CH]4%10)nn2)C[C@H]1C(=O)N[C@@H](Cc1c[nH]c2ccccc12)C(=O)N[C@@H](CO)C(=O)N[C@@H](CCC(=O)O)C(=O)N[C@@H](C)C(=O)N[C@@H](CCSC)C(=O)N[C@@H](CCSC)C(N)=O)[C@@H](C)CC (stereo partly shown) [HNG-156],effect on P4-CCR5 cell viability,[6],no effect
same,CC50 at 2 h,[7],> 59 µM
dextran sulfate,Viral infectivity inhibition IC50,[3]; agent alone,0.900 microgram/milliliter
same,IC50,[8],9.8 µM
same,"IC50, inhibition of infection by HIV-1 BaL",[8],4.9 µg/mL
CC[C@H](C)[C@H](NC(=O)[C@@H](N)CCCNC(=N)N)C(=O)N[C@@H](CC(N)=O)C(=O)N[C@@H](CC(N)=O)C(=O)N[C@H](C(=O)N1C[C@@H](n2cc([C]34[CH]5[CH]6[CH]7[CH]3[Fe]6754389%10[CH]4[CH]3[CH]8[CH]9[CH]4%10)nn2)C[C@H]1C(=O)N[C@@H](Cc1c[nH]c2ccccc12)C(N)=O)[C@@H](C)CC (stereo partly shown) [UM12] (H-RINNI[X1]W-NH2; N-terminus and C-terminus assumed),inhibition of negative control viruses pseudotyped with the VSV envelope,[9],Neither of these conjugates inhibited
same,direct binding to 17b,[10],neither UM10 nor UM12 exhibited direct binding
same,ΔH,[11],-19.7 kcal/mol
same,−TΔS,[11],+9.9 kcal/mol
same,dissociation rate constant (koff),[1],1.8E−03 ± 1.3 1/S
same,direct binding to sCD4,[12],neither UM10 nor UM12 exhibited direct binding
same,IC50,[2],6.8 ± 0.3 µM
RINNIPWSEAMM [HNG-124],impact on cell viability,[4],no or minimal impact
same,IC50,[5],0.418 µM
RINNIPWSEAMM [HNG-137],impact on cell viability,[4],no or minimal impact
same,IC50,[5],0.61 µM
CC[C@H](C)[C@H](NC(=O)[C@H](CC(N)=O)NC(=O)[C@@H](N)CC(N)=O)C(=O)N1C[C@@H](n2cc([C]34[CH]5[CH]6[CH]7[CH]3[Fe]6754389%10[CH]4[CH]3[CH]8[CH]9[CH]4%10)nn2)C[C@H]1C(=O)N[C@@H](Cc1c[nH]c2ccccc12)C(N)=O (stereo partly shown) [UM17] (H-NNI[X1]W-NH2),ΔH,[11],-13.2 kcal/mol
same,−TΔS,[11],+3.3 kcal/mol
same,dissociation rate constant (koff),[1],6.0E−03 ± 1.25 1/S
same,IC50,[2],33 ± 11 µM
CSCC[C@H](NC(=O)[C@H](CCSC)NC(=O)[C@H](C)NC(=O)[C@H](CCC(=O)O)NC(=O)[C@H](CO)NC(=O)[C@H](Cc1c[nH]c2ccccc12)NC(=O)[C@@H]1C[C@H](n2cc([C]34[CH]5[CH]6[CH]7[CH]3[Fe]6754389%10[CH]4[CH]3[CH]8[CH]9[CH]4%10)nn2)CN1)C(N)=O (stereo partly shown) [UM10] (H-[X1]WSEAMM-NH2; N-terminus and C-terminus assumed),inhibition of negative control viruses pseudotyped with the VSV envelope,[9],Neither of these conjugates inhibited
same,direct binding to 17b,[10],neither UM10 nor UM12 exhibited direct binding
same,mAb 17b (IC50),[13],unable to inhibit
same,dissociation rate constant (koff),[1],8.90E−04 ± 1.2 1/S
same,affinity relative to 12 mer peptide of HNG-156,[1]; lower affinity,100 fold
same,direct binding to sCD4,[12],neither UM10 nor UM12 exhibited direct binding
same,IC50,[2],35 ± 15 µM
same,sCD4 (IC50),[14],unable to inhibit; also recorded: no IC50 value could be calculated
CC[C@H](C)[C@H](NC(=O)[C@H](CC(N)=O)NC(=O)[C@H](CC(N)=O)NC(=O)[C@@H](N)CCCNC(N)=O)C(=O)N1C[C@@H](n2cc([C]34[CH]5[CH]6[CH]7[CH]3[Fe]6754389%10[CH]4[CH]3[CH]8[CH]9[CH]4%10)nn2)C[C@H]1C(=O)N[C@@H](Cc1c[nH]c2ccccc12)C(=O)N[C@@H](CO)C(N)=O (stereo partly shown) [UM24] (H-[Cit]NNI[X1]WS-NH2; N-terminus and C-terminus assumed),Kd,[15],~0.021 µM
same,ΔH,[11],-16.7 kcal/mol
same,−TΔS,[11],+6.3 kcal/mol
same,dissociation rate constant (koff),[1],2.9E−03 ± 1.2 1/S
"Cyanovirin-N: 11 kD protein originally isolated from the cyanobacteria Nostoc ellipsosporum; binds gp120 (protein, listed as Nostoc ellipsosporum, DISULFID (8)..(22); DISULFID (58)..(73)) LGKFSQTCYNSAIQGSVLTSTCERTNGGYNTSSIDLNSVIENVDGSLKWQPSNFIETCRNTQLAGSSELAAECKTRAQQFVSTKINLDDHIANIDGTLKYE",Viral infectivity inhibition IC50,[3]; agent alone,0.026 microgram/milliliter
same,EC50 Dm,"[3]; agent alone, dose at which 50% neutralization occurs",0.045 µg/mL
